Assay results as given in article PMC11258189, “Estrogenic, androgenic, and genotoxic activities of zearalenone and deoxynivalenol in in vitro bioassays including exogenous metabolic activation” (Mycotoxin Research, 2024).
Like-named read-outs stand apart in the source and are kept apart here.

Assays:
[1] = parameters: method as in Drzymala et al. [2015]; conditions: ref Drzymala et al. [2015]; cited from earlier work
[2] = target: T1, human androgen receptor (Homo sapiens, UniProt P10275); type: cell-based
T1 construct: host or cells: Chinese hamster ovary (CHO) cells, AR-EcoScreen GR KO M1, stably transfected, glucocorticoid receptor knocked out
T1 sequence (P10275 1-920): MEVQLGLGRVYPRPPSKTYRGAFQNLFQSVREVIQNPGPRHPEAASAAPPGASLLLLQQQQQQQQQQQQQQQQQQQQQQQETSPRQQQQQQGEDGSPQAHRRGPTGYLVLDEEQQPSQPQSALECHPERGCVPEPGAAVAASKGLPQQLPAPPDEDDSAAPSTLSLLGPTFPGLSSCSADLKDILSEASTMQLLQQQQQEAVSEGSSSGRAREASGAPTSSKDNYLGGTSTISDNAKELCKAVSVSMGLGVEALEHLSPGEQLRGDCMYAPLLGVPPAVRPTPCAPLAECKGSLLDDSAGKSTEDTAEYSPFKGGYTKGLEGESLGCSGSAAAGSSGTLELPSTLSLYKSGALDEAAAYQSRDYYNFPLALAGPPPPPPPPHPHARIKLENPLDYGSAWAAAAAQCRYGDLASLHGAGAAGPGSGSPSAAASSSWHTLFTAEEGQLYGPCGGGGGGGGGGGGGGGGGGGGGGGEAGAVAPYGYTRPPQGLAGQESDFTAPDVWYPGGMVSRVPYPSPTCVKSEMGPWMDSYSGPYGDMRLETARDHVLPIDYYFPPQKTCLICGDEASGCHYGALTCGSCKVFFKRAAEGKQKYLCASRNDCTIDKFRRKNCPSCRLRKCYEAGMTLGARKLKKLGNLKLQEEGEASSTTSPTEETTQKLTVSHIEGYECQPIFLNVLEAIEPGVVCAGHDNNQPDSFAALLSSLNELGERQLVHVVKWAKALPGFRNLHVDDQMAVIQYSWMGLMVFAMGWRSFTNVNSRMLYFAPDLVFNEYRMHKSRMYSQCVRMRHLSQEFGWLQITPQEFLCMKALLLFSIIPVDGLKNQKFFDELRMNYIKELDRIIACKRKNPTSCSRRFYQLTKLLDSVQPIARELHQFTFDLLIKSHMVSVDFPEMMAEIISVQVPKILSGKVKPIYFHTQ

[3] = tested on: estrogen receptor (ER)
[4] = tested on: AR; parameters: method as in Molina-Molina et al. [2014]; conditions: ref Molina-Molina et al. [2014], cited from earlier work
[5] = tested on: TK6 cells
[6] = parameters: method as in Drzymala et al. [2014]; conditions: rat liver microsomes, presence of NADPH, after 60 min; ref Drzymala et al. [2014]; cited from earlier work
[7] = target: T1, human androgen receptor; type: cell-based; remark: listed apart in the source
[8] = tested on: estrogen receptor (ER); type: cell-based, human
[9] = ZEN compounds, S9 + PHI + PHII cofactors, [95% CI]
[10] = ZEN compounds, S9 + PHI cofactors, [95% CI]
[11] = ZEN compounds, S9 alone, [95% CI]
[12] = ZEN compounds, no MAS, [95% CI]
[13] = without exogenous MAS, initial concentration-range finding trials, 24 h
[14] = DON compounds, S9 + PHI + PHII cofactors
[15] = DON compounds, S9 + PHII cofactors
[16] = DON compounds, S9 alone, [95% CI]
[17] = DON compounds, no MAS, [95% CI]
[18] = DON compounds, S9 + PHI + PHII cofactors, [95% CI]
[19] = DON compounds, S9 + PHII cofactors, [95% CI]

CC1CCCC(=O)CCC/C=C/c2cc(O)c(O)c(O)c2C(=O)O1 (stereo not shown) [15-OH-ZEN]
Estrogenic potency compared to ZEN, set at 1 [1]: 0.02

C[C@H]1CCCC(=O)CCC/C=C/c2cc(O)cc(O)c2C(=O)O1 [ZEN, zearalenone]
AR antagonism IC30 [2, 9]: 18.0 [13.8,23.4] µM
AR antagonism IC30 [2, 10]: 7.33 [6.31,8.13] µM
AR antagonism IC30 [2, 11]: 2.14 [1.82,2.45] µM
AR antagonism IC30 [2, 12]: 2.37 [1.95,2.75] µM
AR antagonism IC30 [2, 13]: 3.30 µM
ER agonism EC10 [3, 9]: 6470 pM
ER agonism EC10 [3, 10]: 984 [740,1 279] pM
ER agonism EC10 [3, 11]: 63.3 [56.2,97.2] pM
ER agonism EC10 ([3]; ZEN compounds, no MAS (S9 −, PHI −, PHII −), [95% CI]): 46.5 [29.5,72.4] pM
ER agonism EC10 value range converted to a concentration range in a water sample ([3]; converted from 30–40 pM): 0.01 to 0.012 ng/mL
ER agonism EC10 converted to concentration in a water sample enriched 50 times ([3]; water sample enriched 50 times): approximately 0.2 ng/L
ER agonism EC10 [3, 13]: 30 to 40 pM
ER agonism EC10 ([3]; without exogenous MAS, initial concentration-range finding trials, 24 h, listed as Zearalenone (ZEN)): 34.07 pM
Androgenic activities ([4]; PALM cells, 40 h of exposure, concentrations up to 10 µM): no androgenic activities were detected
AR antagonistic effect IC50 ([4]; androgen-sensitive PALM cells): micromolar range
Micronuclei formation (% MN) versus vehicle controls ([5]; 5 h exposure, alone, with S9 alone or S9 with cofactors, ZEN 6.25 and 12.50 µM, DON 0.78 and 1.56 µM): neither ZEN nor DON alone or with the S9 alone or with cofactors had any statistically significant effect on % MN
Micronuclei formation (% MN) versus vehicle control ([5]; 24 h continuous exposure, without MAS, non-cytotoxic test concentrations): statistically significant increase in % MN
Test concentration with statistically significant increase in % MN (highest non-cytotoxic test concentration) ([5]; 24 h continuous exposure, without MAS, p-value of 0.0007): 12.5 µM
Decrease of substrate concentration to (% remaining) [6]: approximately 40%
AR agonism EC10 ([7]; ZEN compounds, S9 + PHI + PHII cofactors): <LOD
AR agonism EC10 ([7]; ZEN compounds, S9 + PHI cofactors): <LOD
AR agonism EC10 ([7]; ZEN compounds, S9 alone): <LOD
AR agonism EC10 ([7]; ZEN compounds, no MAS): <LOD
AR agonism EC10 [7, 13]: <LOD
ER antagonism IC30 [8, 10]: 10.3 [8.71,11.8] µM
ER antagonism IC30 [8, 11]: 3.41 [2.40,4.68] µM
ER antagonism IC30 [8, 12]: 2.92 [2.09,3.89] µM
ER antagonism IC30 [8, 13]: 2.85 µM

CC(=O)O[C@@H]1C[C@]2(C)[C@@]3(CO)[C@H](O)C(=O)C(C)=C[C@H]3O[C@H]1[C@@]21CO1 [3-Ac-DON, 3-acetyl deoxynivalenol]
AR antagonism IC30 [2, 14]: <LOD
AR antagonism IC30 [2, 15]: <LOD
AR antagonism IC30 ([2]; DON compounds, S9 alone): <LOD
AR antagonism IC30 ([2]; DON compounds, no MAS): <LOD
AR antagonism IC30 [2, 13]: <LOD
Estrogenicity relative to α-ZEL (times lower) [3]: ~10^5 times
ER agonism EC10 [3, 14]: <LOD
ER agonism EC10 [3, 15]: <LOD
ER agonism EC10 [3, 16]: 0.53 [0.49,0.59] µM
ER agonism EC10 [3, 17]: 0.45 [0.41,0.49] µM
ER agonism, response as % of the maximum response of E2 in the assay ([3]; without MAS): 30%
ER bioassay EC10 (estrogenic) ([3]; without MAS, abstract): 310 nM
ER agonism EC10 [3, 13]: 310,000 pM
AR agonism EC10 [7, 18]: 0.91 [0.65,1.35] µM
AR agonism EC10 [7, 19]: 0.63 [0.52,0.78] µM
AR agonism EC10 [7, 16]: 1.07 [0.91,1.23] µM
AR agonism EC10 [7, 17]: 1.11 [0.95,1.26] µM
AR agonism EC10 [7, 13]: 1.31 µM
ER antagonism IC30 [8, 18]: <LOD
ER antagonism IC30 [8, 19]: <LOD
ER antagonism IC30 [8, 16]: <LOD
ER antagonism IC30 [8, 17]: <LOD
ER antagonism IC30 [8, 13]: <LOD
